Assay results published in patent US11246817B2, “Antimicrobial composition” (Conopco, Inc., priority 2016, dated 2022).
Where two headings read alike, the source gives them in different places.

System: M. furfur (CBS 1878)
Test: ΣFIC assay against Malassezia furfur (in-vitro susceptibility testing, alamar blue)
Assay type: cell-based
Settings: for MIC: Malassezia furfur; for interaction with zinc pyrithione (synergy) in words: binary combination with zinc pyrithione, judged from ΣFIC; for ΣFIC: in combination with zinc pyrithione 0 to 12.5 ppm, climbazole 0 to 500 ppm, selenium sulfide 0 to 100 ppm
Procedure: A brief description of the method is given below.
Methods: ΣFIC assay against Malassezia furfur
They are then incubated at 32° C. for 48 hrs with shaking. Then, 1 ml of the first broth culture is transferred into 9 ml of fresh PB and incubated at 32° C. for 48 hrs with shaking. The final culture should contain 2 to 6×10^6 cells/ml. This is achieved by diluting using PB to 5*10^5 cell/ml.
The alcoholic compound was serially diluted (2-fold) to prepare in a range of 10-10,000 ppm in growth medium.
Binary combinations of ZPTO and the testing compound were prepared in 96-well plate by mixing 20 μl of zinc pyrithione solution with 20 μl of testing compound. The solution in each well were further mixed with 160 μl of PB and 20 μl of M. furfur. The final cell density in the testing plate is around 5*10^4 cell/ml, and the final concentration of actives in each well of the 96-wel plate were shown below.
The plate was incubated at 32° C. for one day. Then 20 μl of alamar blue (0.01%) was added into each well with a further incubation for one day to observe the color change. Red color indicates microbial growth and the non-changing blue color indicates no growth.
The MIC is defined as the absolute lowest concentration of active that provides complete microbial growth inhibition as indicated by the blue color of alamar blue under the tested condition.
The differing behaviours of inhibitory antimicrobials in isolation and mixtures have been widely explored using the concept of the Fractional Concentration (FC) and Fractional
Inhibitory Concentration (FIC). The parameter can be defined as follows: […]
The interactions between antimicrobials can be additive, synergistic or antagonistic depending on whether the efficacy of the combination is equivalent to, greater than or less than that obtained for the same total concentration of the individual components when tested alone.
These relationships can be expressed mathematically by summing the fractional MIC values for all the components present in the mixture to give the “fractional inhibition index”. There is no consistent approach in the academic or patent literature in defining precise limiting ΣFIC values that differentiate synergy from additivity or antagonism. In this study, we have adopted a liberal approach defining any binary mixture with ΣFIC <0.9 as showing evidence of synergistic behavior.
ΣFIC=FIC (component 1)+FIC (component 2)
ΣFIC=1 corresponds to additive bactericidal activity
ΣFIC>1 corresponds to antagonistic bactericidal activity
ΣFIC<0.9 corresponds to synergistic bactericidal activity
Climbazole was varied over a concentration of 0 to 500 ppm and selenium sulfide over a concentration of 0 to 100 ppm.

[1] = CBS1878, read-out: Minimum Inhibition Concentration (MIC)

Row | MIC (CBS1878, active alone, lowest concentration giving complete growth inhibition (alamar blue stays blue), 32° C., Pityrosporum Broth, read-out: Minimum Inhibition Concentration (MIC)) | SMILES | MIC [1] | interaction with zinc pyrithione (synergy) in words | ΣFIC | Minimum Inhibition Concentration (MIC) (active alone, lowest concentration giving complete growth inhibition (alamar blue stays blue), 32° C., Pityrosporum Broth)
1 |  | COc1ccc(C(C)=O)c(O)c1 [paeonol] | 500 µg/mL |  |  | 
2 |  | C=CCc1ccc(O)c(-c2ccc(O)c(CC=C)c2)c1 [honokiol] | 1000 µg/mL |  |  | 
3 | 3.9 µg/mL | CC(C)(C)C(=O)C(Oc1ccc(Cl)cc1)n1ccnc1 (stereo not drawn) [climbazole] |  | not synergistic | 2 | 
4 |  | C=CCc1ccc(O)c(-c2cc(CC=C)ccc2O)c1 [magnalol] | 500 µg/mL |  |  | 
5 |  | S=[Se]=S [selenium sulfide] |  | not synergistic | 2 | 50 ppm
